Where two headings read alike, the source gives them in different places.
Legend:
[1] = test system: human neuroblastoma (SH-SY5T); test: cell viability, neuroblastoma SH-SY5T; format: cell-based; details: for IC50: Homo sapiens
Method: The effect of paroxetine on primary tissue cultures was also evaluated. […] The viability of the cells after treatment with paroxetine was determined by neutral red (NR) technology 24 hr. post treatment.
(§1) Cyclic antidepressants at varying concentrations (between 10PM and 100 μM) was applied to neuroblastoma SH-SY5T, 3LL lung carcinoma, prostate (LN-CapAp), melanoma B16, and cell viability was determined as described above.

mouse melanoma (B-16) = test: cell viability, melanoma B16; format: cell-based; details: Mus musculus
Method: as §1

[2] = test system: human prostate (LN-CapAp); test: cell viability, prostate LN-Cap; format: cell-based; details: Homo sapiens, LNCaP
Method: The effect of trifluoperazine and flupentixol was studied in two cell-lines of human prostate cancer: androgen dependent (LN-Cap) and androgen independent (PC-3).
as §1

mouse lung sarcoma (3LL) = test: cell viability, lung 3LL; format: cell-based; details: Mus musculus; Table 1B; read-out: Cell viability IC50 Lungs Sarcoma 3LL
Method: In another experiment the effect of clotiapine at the same concentrations on the viability of mouse lung carcinoma (3LL) cells was determined.
as §1

[3] = test system: mouse melanoma B16 MDR cells; test: cell viability, melanoma B16 MDR; format: cell-based
[4] = test system: mouse Lewis lung carcinoma (3LL); test: in vivo effect on Lewis lung carcinoma (3LL) in mice; details: 3LL inoculated C57 mice, i.p. daily, thioridazine 15 mg/kg, others 30 mg/kg
Method: Female C57 black mice aged 4 weeks were used in order to evaluate the in vivo effect of cyclic psychotropic agents on tumor cells. In particular, animals were divided into 5 groups (6-8 mice each). Animals were inoculated with mouse Lewis lung carcinoma (3LL, 0.5 million each) by i.v. injection to the tail vein and then treated by i.p. injection daily for 3 weeks with the following different agents
(5) Paroxetine (30 mg/kg).
During the treatment period animals were inspected daily and their body weight registered twice a week. […] After the four weeks of treatment the mice were sacrificed and their lungs dissected and weighted.

B16 melanoma cells = test: sensitization to doxorubicin, B16 melanoma cells; format: cell-based, mouse; details: B16 melanoma cells, FIG. 6D
HaCat keratinocytes = test: keratinocyte viability, Neutral red, HaCat; format: cell-based, human; details: for IC50: Homo sapiens, HaCaT
Method: (§2) The drugs were administered at concentrations within the range of 5-100 μM and cell viability was measured 24 hr post-administration by Neutral red staining. The efficiency of the agents against viability of the cell lines was evaluated also by comparison with two commonly used anticancer agents (Doxorubicin and 5-fluorouracil (5-FU)) at equimolar concentrations.

HaCat I5 keratinocytes = test: keratinocyte viability, Neutral red, HaCat I5; format: cell-based, human
Method: as §2

[5] = test system: HaCat II-4RT keratinocytes; test: keratinocyte viability, Neutral red, HaCat II4; format: cell-based; details: Homo sapiens
Method: as §2

different cell-lines = test: mean IC50 over cell lines and therapeutic index
[6] = test system: human neuroblastoma (SK-N-SH); test: cell viability (neutral red, Almar Blue, Hoechst dye), neuroblastoma SK-N-SH; format: cell-based; details: Homo sapiens, SK-N-SH; Table 1A
rat glioblastoma (C6) = test: cell viability, glioma C6; format: cell-based; details: Rattus norvegicus; Table 1A
human breast (MCF7) = test: cell viability, breast MCF7; format: cell-based; details: Table 1A
Colon Ht-29 = test: cell viability, colon Ht-29; format: cell-based; details: Homo sapiens, Table 1A
[7] = test system: mouse-selected embryo, neuronal culture; test: primary tissue culture, neuronal; format: cell-based; details: data not shown
[8] = test system: rat new born myocytic culture; test: primary tissue culture, myocytic; format: cell-based; details: data not shown
[9] = test system: Neuroblastoma cell line (SK-NSH); test: apoptosis by flow cytometry of propidium iodide stained cells; format: cell-based, human; details: after 24 and 48 hours at 20 μM and higher; FIG. 7
Method: The percentage of apoptosis of the cells was determined by flow cytometry of propidium iodide stained cells using a fluorescence-activated cell sorter (FACScan) (Becton and Dickenson, Heidelberg, Calif.) equipped with an argon ion laser (an excitation wavelength, […]) and a doublet discrimination module (DDM). Lysis II (BD) software was used for data acquisition.

p53 mutant = p53 mutant expression, western blotting in glioma C6; format: cell-based, rat; details: 60 μM, FIG. 8
[10] = Homo sapiens, HaCaT, mean of the determinations, read-out: IC50 HaCat I5 ME
[11] = Homo sapiens, HaCaT, single determinations, read-out: IC50 HaCat I5

Q: What does the source list for `Fc1ccc([C@@H]2CCNC[C@H]2COc2ccc3c(c2)OCO3)cc1` [Paroxetine]?
A: sensitivity of neuroblastoma cells compared to primary tissue (viability) ([1]; 10 μM to 100 μM, neutral red, 24 hr post treatment, vs primary mouse brain and selected neurons, FIG. 1): increased sensitivity; IC50 ([1]; Table 1B, read-out: Cell viability IC50 Neuroblastoma SH-SY5T): 15 µM; IC50 (mouse melanoma (B-16); Example 9, read-out: IC50 levels, wild type B16 mouse melanoma): 15 to 20 µM; IC50 (mouse melanoma (B-16); Table 1B, read-out: Cell viability IC50 Melanoma 16B): 12 µM; IC50 ([2]; Table 1B, read-out: Cell viability IC50 Prostate LN-Cap): 16 µM; IC50 (mouse lung sarcoma (3LL)): < 10 µM; IC50 ([3]; B16, Example 9, FIG. 9, read-out: IC50 levels, transformed (MDR) B16 melanoma): 15 to 20 µM; IC50 ([3]; Table 1B, read-out: Cell viability IC50 Melanoma B16 MDR): 11 µM; survival rate during four weeks of treatment [4]: 5/6; lungs weight / tumor size compared to control group ([4]; FIG. 5): effective in reducing tumor size; potentiation of doxorubicin (in words) (B16 melanoma cells): same effect; cell viability HaCat (in words) (HaCat keratinocytes; 5-100 μM, 24 hr, Neutral red, FIG. 13A, 15A): effective in reducing cell viability; cell viability HaCat I5 (in words) (HaCat I5 keratinocytes; 5-100 μM, 24 hr, Neutral red, FIG. 13B, 15B): effective in reducing cell viability; IC50 (HaCat I5 keratinocytes; [10]): 21 µM; IC50 (HaCat I5 keratinocytes; [11]): 21 µM; IC50 [5]: 12 µM; IC50 (different cell-lines; read-out: IC50 Mean +/− SD): 12.4 µM

Q: What does the source list for `OCCN1CCN(CCCN2c3ccccc3Sc3ccc(Cl)cc32)CC1` [Perphenazine]?
A: IC50 [6]: 21 µM; IC50 ([1]; Table 1A, read-out: Viability IC50 Neuroblastoma SH-SY5T): 15 µM; IC50 (rat glioblastoma (C6)): 22 µM; IC50 (mouse melanoma (B-16); Table 1A, read-out: Viability IC50 Melanoma B16): 23 µM; IC50 ([2]; Table 1A, read-out: Viability IC50 Prostate LN-Cap): 18 µM; IC50 (human breast (MCF7)): 21 µM; IC50 (Colon Ht-29): 22 µM; IC50 [7]: 60 µM; IC50 [8]: 35 to 55 µM; apoptosis (in words) [9]: mortal and dramatic apoptosis; mean decrease in expression of p53 mutant (p53 mutant): 30%; IC50 (HaCat keratinocytes; mean of the determinations, read-out: IC50 HaCat ME): 24 µM; IC50 (HaCat keratinocytes; single determinations, read-out: IC50 HaCat): 24 µM; IC50 (HaCat I5 keratinocytes; [10]): 26 µM; IC50 (HaCat I5 keratinocytes; [11]): 30 µM; IC50 (HaCat I5 keratinocytes; single determinations, read-out: IC50 HaCat I5): 22 µM; IC50 (different cell-lines; read-out: IC50 Mean ± SD): 20 ± 2.7 µM

Reference: patent US20040029860A1, “Anti-proliferative drugs” (priority 2000, published 2004)
